For orientation: IC50 means the concentration needed to halve the response being measured.

The test system of one assay is HCC2998. In words: Cell growth inhibition assay (Cell Titer Glo, 3 days). Type of assay: cell-based. Conditions: Homo sapiens, HCC 2998; HCC2998, colon; BRAF WT, KRAS A146T, PIK3CA WT; mean ± std; read-out: IC50 Single Agent. As for the experimental part: (§1) Human colon tumor lines, Colo205, DLD1, HCC2998, HCT15, HCT8, HT29, KM-12, LS1034, LS174T, NCI-H508, RKO, SW1417, SW1463, SW480, SW837 and T84, and human melanoma line A375 were from ATCC. A375PF11 was derived from A375, 12R5-1, 12R5-3, 12R8-1, 12R8-3, 16R5-2, 16R6-3 and 16R6-4 are single cell clones derived from mixed populations of A375PF11 cells that were selected to grow in Compound A to concentrations of 1200 and 1600 nM. All lines were cultured in RPMI 1640 medium containing 10% fetal bovine serum (FBS).
All cells were cultured for a minimum of 72 hours prior to cell plating. Cells were assayed in a 96-well tissue culture plate (NUNC 136102) of RPMI medium containing 10% FBS for all cells at 1,000 cells per well. Approximately 24 hours after plating, cells were exposed to ten, three-fold serial dilutions of compound or the combination of the two agents at a constant molar to molar ratio of 1:10 Compound A to Compound B in RPMI media containing 10% FBS. Cells were incubated in the presence of compounds for 3 days. ATP levels were determined by adding Cell Titer Glo® (Promega) according to the manufacturer's protocol. Briefly, Cell Titer Glo® was added each plate, incubated for 30 minutes then luminescent signal was read on the SpectraMax L plate reader with a 0.5 sec integration time.
Inhibition of cell growth was estimated after treatment with compound or combination of compounds for three days and comparing the signal to cells treated with vehicle (DMSO). Cell growth was calculated relative to vehicle (DMSO) treated control wells. […]
On the technique in general: ATP-based viability assays read luminescence as a measure of living cells.

Assay [1] deals with seven Compound A resistant clones derived from the A375PF11 melanoma cell line. In words: Cell growth inhibition assay (Cell Titer Glo, 3 days), summary over clones. The format is cell-based. Conditions: Homo sapiens, A375P-F11; seven Compound A resistant clones (12R8-3, 12R8-1, 12R5-3, 16R5-2, 16R6-3, 16R6-4, 12R5-1); single agent. The protocol:
as §1
All cells were cultured for a minimum of 72 hours prior to cell plating. […] ATP levels were determined by adding Cell Titer Glo® (Promega) according to the manufacturer's protocol. Briefly, Cell Titer Glo® was added each plate, incubated for 30 minutes then luminescent signal was read on the SpectraMax L plate reader with a 0.5 sec integration time.
Inhibition of cell growth was estimated after treatment with compound or combination of compounds for three days and comparing the signal to cells treated with vehicle (DMSO). Cell growth was calculated relative to vehicle (DMSO) treated control wells.
Combination effects on potency were evaluated using Combination Index (CI) which was calculated with the back-interpolated IC50 values and the mutually non-exclusive equation derived by Chou and Talalay (1): CI=Da/IC50(a)+Db/IC50(b)+(Da×Db)/(IC50(a)×IC50(b)) […]

Regarding `CC(C)(C)c1nc(-c2cccc(NS(=O)(=O)c3c(F)cccc3F)c2F)c(-c2ccnc(N)n2)s1` [Compound A, N-{3-[5-(2-Amino-4-pyrimidinyl)-2-(1,1-dimethylethyl)-1,3-thiazol-4-yl]-2-fluorophenyl}-2,6-difluorobenzenesulfonamide], the 50% inhibitory concentration (IC50) with HCC2998 was more than 10 µM.

In the case of `Cn1ncc(Cl)c1-c1cc(C(=O)N[C@H](CN)Cc2ccc(F)c(F)c2)oc1Cl` [Compound B, N-{(1S)-2-amino-1-[(3,4-difluorophenyl)methyl]ethyl}-5-chloro-4-(4-chloro-1-methyl-1H-pyrazol-5-yl)-2-furancarboxamide], the IC50 in assay [1] was not below 7 µM.

(Values after US9402846B2, “Combination of inhibitor of B-Raf and inhibitor of AKT in the treatment of cancer” (Novartis AG, priority 2009, dated 2016).)
